Laboratory results taken from patent US9550811B2, “Peptide scaffold design” (BIONOR IMMUNO AS, priority 2010, dated 2017).
Where no end group is shown, it is not given here. [ ]: non-standard residue; d: D form. Cit = NC(=O)NCCC[C@H](N)C(=O)O; Nle = CCCC[C@H](N)C(=O)O

What was measured:
Test in all cases: REVEAL binding assay
Conditions in all cases: score as percentage of the signal generated by the positive control peptide
[1] = test system: HLA-A1
[2] = test system: HLA-A24
Method: Binding properties to HLA for the ninemers listed in table 6 were tested for the following HLA-classes:
HLA-A1, HLA-A2, HLA-A3, HLA-A11, HLA-A24, HLA-A29, HLA-B7, HLA-B8, HLA-B14, HLA-B15, HLA-B27, HLA-B35, HLA-B40.
The REVEAL™ binding assay determined the ability of each candidate peptide to bind to one or more MHC class I alleles and stabilizing the MHC-peptide complex. […] Detection is based on the presence or absence of the native conformation of the MHC-peptide complex. Each peptide is given a score relative to the positive control peptide, which is a known T cell epitope.

[3] = test system: HLA-A29
[4] = test system: HLA-B8
[5] = test system: HLA-B14
[6] = test system: HLA-B15
[7] = molecular target: HLA-A11 (Homo sapiens, UniProt P04439, A114D/F33Y/S129P)
Procedure, shortened: (§1)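 Synthetic nonamer peptides were tested for their ability to bind and stabilize MHC class I–peptide complexes, detected by the native conformation of the complex. Each peptide is scored relative to a positive-control known T-cell epitope.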

[8] = molecular target: HLA-A2 (Homo sapiens, UniProt P04439, D140Y/D185E/D98H/E176V/E277Q/G131W/G231S/I119V/I121R/I166T/I218V/N151K/N90K/P208A/P217A/Q86G/Q94H/R138H/R169H)
Procedure, shortened: as §1

[9] = molecular target: HLA-A3 (Homo sapiens, UniProt P04439)
Procedure, shortened: as §1

[10] = molecular target: HLA-B27 (Homo sapiens, UniProt P01889, D138H/D201E/E176V/E204Q/G107R/H137Y/K202T/N104T/N87E/Q56L/Q94K/R106L/R155S/R180L/S101D/S121N/S48T/Y140D/Y33H/Y91C)
Procedure, shortened: as §1

[11] = molecular target: HLA-B7 (Homo sapiens, UniProt P01889)
Procedure, shortened: as §1

[12] = test system: HLA-B35
[13] = test system: HLA-B40
Procedure, shortened: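 Peptide–MHC class I complex stability assay on nonamers. Output: quantitative % relative to high-affinity control epitope, with putative pass/fail designation.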

Sequence of HLA-B7 (P61769 21-119): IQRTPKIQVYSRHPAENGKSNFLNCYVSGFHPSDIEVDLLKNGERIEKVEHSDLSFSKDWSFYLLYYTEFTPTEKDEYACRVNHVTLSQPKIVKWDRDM
Sequence of HLA-B7 (P01889 25-299): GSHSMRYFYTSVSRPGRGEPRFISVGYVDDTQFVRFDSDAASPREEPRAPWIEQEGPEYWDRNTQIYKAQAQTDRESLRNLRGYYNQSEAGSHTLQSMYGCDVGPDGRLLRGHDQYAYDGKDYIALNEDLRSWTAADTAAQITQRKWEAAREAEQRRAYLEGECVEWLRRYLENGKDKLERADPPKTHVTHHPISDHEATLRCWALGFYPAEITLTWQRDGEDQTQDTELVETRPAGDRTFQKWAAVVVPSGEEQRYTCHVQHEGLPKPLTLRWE
Sequence of HLA-A3 (P04439 25-299): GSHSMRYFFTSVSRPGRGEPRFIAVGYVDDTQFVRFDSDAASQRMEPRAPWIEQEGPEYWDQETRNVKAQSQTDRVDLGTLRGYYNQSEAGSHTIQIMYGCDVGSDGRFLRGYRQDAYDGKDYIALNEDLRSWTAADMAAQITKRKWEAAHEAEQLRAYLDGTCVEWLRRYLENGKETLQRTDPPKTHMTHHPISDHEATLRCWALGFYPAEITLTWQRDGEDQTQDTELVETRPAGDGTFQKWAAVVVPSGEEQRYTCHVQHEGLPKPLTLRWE
Sequence of HLA-A3 (P61769 21-119, further chain): as the sequence (P61769 21-119) above

Row | Substance | REVEAL binding score, HLA-type A1 [1] | REVEAL binding score, HLA-type A24 [2] | REVEAL binding score, HLA-type A29 [3] | REVEAL binding score, HLA-type B8 [4] | REVEAL binding score, HLA-type B14 [5] | REVEAL binding score, HLA-type B15 [6] | REVEAL binding score, HLA-type A11 [7] | REVEAL binding score, HLA-type A2 [8] | REVEAL binding score, HLA-type A3 [9] | REVEAL binding score, HLA-type B27 [10] | REVEAL binding score, HLA-type B7 [11] | REVEAL binding score, HLA-type B35 [12] | REVEAL binding score, HLA-type B40 [13]
1 | P[Cit]IGVRAT[Cit] | 18.83% | 0.21% | 14.14% | 9.47% | 0.19% | 12.64% | 1.72% | 7.36% | 2.52% | 0.94% | 1.91% | 2.45% | 49.29%
2 | L[Nle]GYIPLIG | 14.33% | 0.71% | 25.94% | 17.29% | 0.15% | 14.60% | 2.48% | 49.48% | 3.98% | 0.73% | 0.89% | 2.85% | 57.46%
3 | TGNLPGCSF | 11.97% | 4.81% | 18.89% | 8.62% | 0.86% | 45.07% | 2.56% | 5.18% | 3.71% | 2.37% | 2.38% | 11.40% | 73.71%
4 | PRLGVRATR | 17.77% | 0.97% | 13.35% | 11.46% | 0.14% | 10.04% | 2.73% | 6.85% | 3.63% | 0.86% | 42.64% | 1.65% | 14.52%
5 | YLPAVGAPI | 15.76% | 4.65% | 28.40% | 17.92% | 0.12% | 49.63% | 3.07% | 75.80% | 2.58% | 0.51% | 7.70% | 2.03% | 64.34%
6 | SRNLGKVID | 15.30% | 0.71% | 9.94% | 16.71% | 0.67% | 11.25% | 4.45% | 4.94% | 3.46% | 1.28% | 1.28% | 4.59% | 33.93%
7 | GP[Cit]IGVRAT | 18.60% | 0.16% | 11.88% | 9.99% | 0.13% | 7.29% | 2.72% | 9.16% | 3.48% | 0.59% | 5.38% | 2.25% | 19.61%
8 | GYIPLVGAP | 15.62% | 0.80% | 29.74% | 15.94% | 0.47% | 11.02% | 3.84% | 7.28% | 3.46% | 1.76% | 1.37% | 10.35% | 72.32%
9 | VIETLTSGF | 14.61% | 0.82% | 13.07% | 12.96% | 0.35% | 10.37% | 3.66% | 4.84% | 2.55% | 1.38% | 0.71% | 2.39% | 24.04%
10 | GNLPGCSFS | 6.44% | 1.13% | 13.48% | 8.71% | 0.81% | 3.96% | 2.41% | 6.11% | 3.54% | 13.44% | 1.84% | 4.80% | 80.68%
11 | GQIVGGVYL | 15.07% | 0.50% | 13.73% | 14.53% | 0.37% | 182.45% | 4.46% | 55.85% | 4.80% | 1.01% | 6.56% | 3.24% | 24.20%
12 | EL[Nle]GYIPLI | 18.29% | 0.92% | 20.93% | 17.05% | 0.14% | 8.91% | 3.21% | 97.87% | 4.54% | 0.67% | 0.68% | 2.55% | 43.10%
13 | [Nle]GYIPLIGA | 17.87% | 1.33% | 27.85% | 21.35% | 0.29% | 11.07% | 7.27% | 10.43% | 3.13% | 1.42% | 1.78% | 5.89% | 60.84%
14 | KVIDTLTCG | 15.77% | 0.57% | 13.16% | 13.17% | 0.18% | 10.13% | 8.91% | 19.13% | 4.27% | 0.63% | 0.57% | 2.74% | 32.89%
15 | GITFSIYLI | 9.61% | 3.05% | 10.42% | 8.94% | 0.63% | 8.15% | 4.88% | 7.27% | 1.42% | 3.29% | 2.07% | 9.27% | 68.30%
